Consider eleven compounds from patent US5776929A, “Benzodiazepine derivative” (Shionogi & Co., Ltd., priority 1993, dated 1998).

The target in one assay is T1, CCK-B receptor (Mus musculus, UniProt P56481).
T1 construct: crude membrane specimen from mouse cerebral cortex; from tissue; host or cells: cerebral cortex of male ddY mice, crude membranes
T1 sequence (P56481 1-453): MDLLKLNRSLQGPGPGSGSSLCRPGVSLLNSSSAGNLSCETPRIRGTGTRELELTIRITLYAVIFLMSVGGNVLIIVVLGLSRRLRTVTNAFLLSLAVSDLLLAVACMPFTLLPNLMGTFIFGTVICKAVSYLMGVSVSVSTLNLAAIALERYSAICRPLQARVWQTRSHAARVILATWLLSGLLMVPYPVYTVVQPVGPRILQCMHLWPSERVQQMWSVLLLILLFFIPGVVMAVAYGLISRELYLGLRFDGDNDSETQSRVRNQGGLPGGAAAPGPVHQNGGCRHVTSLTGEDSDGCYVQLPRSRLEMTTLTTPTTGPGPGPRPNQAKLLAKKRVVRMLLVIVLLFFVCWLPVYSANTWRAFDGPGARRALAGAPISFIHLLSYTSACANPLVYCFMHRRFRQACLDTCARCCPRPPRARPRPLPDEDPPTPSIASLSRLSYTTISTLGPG
The assay is described as follows: CCK-B receptor antagonism, displacement of [3H]CCK-8, cerebral cortex crude membrane. To be noted: mouse cerebral cortex membrane, [3H]CCK-8 1 nM, 90 min, 25 °C; read-out: Receptor CCK-B (IC50). It is filed as binding, mouse (male ddY). Here is the method: (§1) Male Hartley guinea pig (450-600 g) or male ddY mouse (24-30 g) were used.
(§2) (2) CCK-A Receptor Antagonism and CCK-B Receptor Antagonism
(§3) Preparation of CCK receptor preparations
(§4) Male ddY mice (24 to 30 g) were killed by decapitation and cerebral cortex (CCK-B) and pancreas (CCK-A) were extracted immediately. Each of cerebral cortex and pancreas was mixed with 50 mM Tris-HCl buffer (pH 7.4) and homogenized with a teflon-glass homogenizer and polytron homogenizer to obtain crude membrane specimens.
(§5) Preparation of test compounds and procedures of displacing assay A 1M solution of a compound to be tested in DMSO is prepared and diluted with 50% DMSO to obtain a ten-fold dilution series.
(§6) The reaction is initiated by the addition of crude membrane specimen to solutions of different concentration each containing [^3 H]CCk-8 (final concentration, 1 nM). The mixture is incubated for 90 min at 25° C., filtered through glass filter with aspiration and washed with a cooled 50 mM Tris buffer. After the addition of Aquazol-2 cocktail the radioactivity is counted. The same procedure was repeated using 50% DMSO solution or Ceruletide (final concentration, 1 μM) instead of a solution of test compound so as to obtain the control value regarding total binding or the value regarding non-specific binding, respectively. […]
(§7) specific binding of control=total binding (cpm)-non-specific binding (cpm); and specific binding of test compound=[…]-non-specific binding (cpm).

The next assay addresses T2, CCK-A receptor (Mus musculus, UniProt O08786).
T2 construct: crude membrane specimen from mouse pancreas; from tissue; host or cells: pancreas of male ddY mice, crude membranes
T2 sequence (O08786 1-436): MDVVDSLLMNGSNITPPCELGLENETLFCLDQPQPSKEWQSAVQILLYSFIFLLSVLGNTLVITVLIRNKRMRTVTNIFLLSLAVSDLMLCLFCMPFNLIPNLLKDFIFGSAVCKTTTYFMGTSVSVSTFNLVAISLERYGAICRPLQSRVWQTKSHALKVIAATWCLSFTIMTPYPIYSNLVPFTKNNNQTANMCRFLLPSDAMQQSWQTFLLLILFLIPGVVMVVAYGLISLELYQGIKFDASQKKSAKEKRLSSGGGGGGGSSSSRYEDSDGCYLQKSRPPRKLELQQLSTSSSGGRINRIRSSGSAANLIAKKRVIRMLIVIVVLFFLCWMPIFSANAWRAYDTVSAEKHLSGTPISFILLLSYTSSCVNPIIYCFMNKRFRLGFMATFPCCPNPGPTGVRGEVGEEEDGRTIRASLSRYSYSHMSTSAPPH
The experiment in a line: CCK-A receptor antagonism, displacement of [3H]CCK-8, pancreas crude membrane. The assay is classed as binding, mouse (male ddY). The note with it: mouse pancreas membrane, [3H]CCK-8 1 nM, 90 min, 25 °C; read-out: Receptor CCK-A (IC50). Here is the method: as §1, §2, §3, §4, §5, §6, §7
For orientation: Displacement assays read how much labelled ligand stays bound in the presence of the test substance.

The subject of another assay is gastric acid secretion. The assay is described as follows: Inhibitory effect on gastric acid secretion by Schild method (pentagastrin-stimulated). It is filed as in vivo, rat (male Sprague Dawley). The note with it: intraduodenal, rat, read-out: Inhibitory Effect on acid secretion (Schild method), percent inhibition. From the text: Evaluation of Inhibitory Effect on Gastric Acid Secretion by Schild Method
Twenty four hour starved (ad libitum for water) male Sprague Dawley rats (8-week-old) were anesthetized with urethane (1.5 g/kg S.C.) and kept breathing with esophagus cannulas. After laparotomy, esophagus cannulas were inserted orally up to proventriculus and ligated around gastric cardiac. Perfusion cannulas were inserted from duodenum into stomach and ligated around pylorus. Another cannulas were placed into duodenum and ligated for administration of drug. After sutra of abdomen, stomach was perfused via the esophagus cannulas with physiological saline (37° C.) while collecting perfusate for a 15 min interval. The perfusate was subjected to titration with 0.001 N NaOH solution to determine the acidity. When the basal acid secretion became stable, pentagastrin ([…]) was administered in a sustained manner via common carotid vein for about 90 min until the acid secretion reached approximately the highest level, when a test compound (0.5% M.C. suspension) was administered into duodenum through cannulas. The perfusate was collected for a 15 min interval to monitor the acid secretion for 90 min. The percent inhibition was calculated as follows:
Percent inhibition (%)=100×(A-B)/(C-B)
A: the minimum value of total acidity observed after the administration of a test compound;
B: the total acidity obtained immediately before the administration of pentagastrin; and
C: the total acidity obtained immediately before the administration of a test compound.

A further assay has as its target T3, gastrin receptor (Cavia porcellus, UniProt H0VZC5).
T3 construct: stomach was extracted from each animal immediately, from which gastric glands were prepared; from tissue; host or cells: gastric (fundic) glands of male Hartley guinea pigs
T3 sequence (H0VZC5 1-426): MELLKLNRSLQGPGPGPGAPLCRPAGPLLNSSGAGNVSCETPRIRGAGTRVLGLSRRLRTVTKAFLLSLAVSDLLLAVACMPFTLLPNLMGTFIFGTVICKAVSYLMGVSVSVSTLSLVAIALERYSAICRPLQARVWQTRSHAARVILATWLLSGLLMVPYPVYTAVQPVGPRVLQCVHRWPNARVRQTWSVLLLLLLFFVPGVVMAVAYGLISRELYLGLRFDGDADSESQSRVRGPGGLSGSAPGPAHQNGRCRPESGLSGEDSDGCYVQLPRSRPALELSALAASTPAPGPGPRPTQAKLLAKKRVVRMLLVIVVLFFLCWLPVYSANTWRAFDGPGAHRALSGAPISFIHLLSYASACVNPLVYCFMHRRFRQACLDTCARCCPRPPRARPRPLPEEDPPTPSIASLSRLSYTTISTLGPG
The experiment in a line: Gastrin receptor antagonism, displacement of 125I-labeled gastrin, gastric (fundic) gland cells. The note with it: guinea pig gastric glands, 125I-gastrin 0.2 nM, 30 min, 25 °C; read-out: Receptor Gastrin (IC50). It is filed as binding, guinea pig (male Hartley). Here is the method:
as §1
(1) Gastrin Receptor Antagonism
Preparation of gastric glands:
Male Hartley guinea pigs (450-600 g) were killed by bleeding and stomach was extracted from each animal immediately, from which gastric glands were prepared.
Preparation of test compounds and procedures of displacing assay
A 1M solution of a compound to be tested in DMSO is prepared and diluted with 50% DMSO to obtain a ten-fold dilution series.
The mixture is incubated for 30 min at 25° C., centrifuged at 2000 rpm for 5 min and the supernatant is removed by aspiration. To the pellet is added ice-cooled incubation buffer and mixed gently, followed by an immediate centrifugation and removal of the supernatant by aspiration. The radioactivity is counted on gamma counter. The same procedure was repeated using 50% DMSO solution or human gastrin I (final concentration, 2 μM) instead of a solution of test compound so as to obtain the control value regarding total binding or the value regarding non-specific binding, respectively. […]
as §7

Turning to `O=C(O)Cc1cccc(NC(=O)NC2C(=O)N(CC(=O)N3CCCC3)c3ccccc3N(CC(=O)N3CCCC3)C2=O)c1` [Compound 18-xiii, 1,5-Bis-(pyrrolidinocarbonylmethyl)-3-(N'-(m-(carboxymethyl)phenyl)ureido)-1H-1,5-benzodiazepine-2,4(3H,5H)-dione], the IC50 on CCK-B receptor stood at 29 nM; on CCK-A receptor, 10500 nM; at gastrin receptor, 7 nM. The inhibition in vivo at 0.3 mg/kg with gastric acid secretion came out at 26%.
In the case of `O=C(Nc1cccc(-c2nnn[nH]2)c1)NC1C(=O)N(CC2CC2)c2ccccc2N(CC2CC2)C1=O` [Compound 19-iv, 1,5-Bis-(cyclopropylmethyl)-3-(N'-(m-tetrazolylphenyl)ureido)-1H-1,5-benzodiazepine-2,4(3H,5H)-dione], the IC50 at CCK-B receptor turned out to be 26 nM; on CCK-A receptor it was 2600 nM; at gastrin receptor it was 6 nM. The inhibition in vivo at 0.5 mg/kg with gastric acid secretion (0.5 mg/kg) was 58%.
In the case of `O=C(O)CSc1cccc(NC(=O)NC2C(=O)N(CC(=O)C3CC3)c3ccccc3N(CC(=O)C3CC3)C2=O)c1` [Compound 17-ix, 1,5-Bis-(cyclopropylcarbonylmethyl)-3-(N'-(m-(carboxymethylthio)phenyl)ureido)-1H-l,5-benzodiazepine-2,4(3H,5H)-dione], the IC50 at CCK-B receptor was found to be 2 nM; at CCK-A receptor, 500 nM; on gastrin receptor, 0.6 nM. In addition, in the assay with gastric acid secretion, the inhibition in vivo at 0.1 mg/kg was 74%.
In the case of `Cc1cccc(NC(=O)NC2C(=O)N(CC(=O)c3ccco3)c3ccccc3N(CC(=O)c3ccco3)C2=O)c1` [Compound 8f, 1,5-Bis-(2-furylcarbonylmethyl)-3-{N'-(m-tolyl)-ureido}-1H-1,5-benzodiazepine-2,4(3H,5H)-dione], the values for the IC50 at CCK-B receptor, on CCK-A receptor and on gastrin receptor were 17 nM, 120 nM and 3 nM, respectively. The inhibition in vivo at 0.3 mg/kg in the assay with gastric acid secretion is 73%.
As to `O=C(Nc1cccc(-c2nc(=O)o[nH]2)c1)NC1C(=O)N(CC(=O)C2CC2)c2ccccc2N(CC(=O)C2CC2)C1=O` [Compound 17-x, 1,5-Bis-(cyclopropylcarbonylmethyl)-3-(N'-(m-(5-keto-1,2,4-oxadiazol-3-yl)phenyl)ureido)-1H-1,5-benzodiazepine-2,4(3H,5H)-dione], the 50% inhibitory concentration (IC50) on CCK-B receptor was found to be 3 nM; at CCK-A receptor, 360 nM; on gastrin receptor, 1 nM. Also, in the assay on gastric acid secretion, the inhibition in vivo at 0.3 mg/kg was found to be 70%.
Consider `Cc1cccc(NC(=O)NC2C(=O)N(CC(=O)c3ccccc3C)c3ccccc3N(CC(=O)c3ccccc3C)C2=O)c1` [Compound 8d, 1,5-Bis-(o-methylphenacyl)-3-{N'-(m-tolyl)-ureido}-1H-1,5-benzodiazepine-2,4(3H,5H)-dione], for which the 50% inhibitory concentration (IC50) at CCK-B receptor is 11 nM; at CCK-A receptor, 29 nM; on gastrin receptor it was 4 nM. Also, the inhibition in vivo at 0.3 mg/kg in the assay on gastric acid secretion was found to be 66%.
On the same counts, the results for `CCOC(=O)c1cccc(NC(=O)NC2C(=O)N(CC(=O)C3CC3)c3ccccc3N(CC(=O)C3CC3)C2=O)c1` [Compound 17-i] are 140 nM, 1350 nM, 7 nM and 44%.
As for `Cc1cccc(NC(=O)NC2C(=O)N(CC(=O)C3CC3)c3ccccc3N(CC(=O)C3CC3)C2=O)c1` [Compound 8h, 1,5-Bis-(cyclopropylcarbonylmethyl)-3-(N'-(m-tolyl)ureido)-1H-1,5-benzodiazepine-2,4(3H,5H)-dione], the IC50 on CCK-B receptor was found to be 18 nM; at CCK-A receptor, 380 nM; on gastrin receptor it was 5 nM. Besides, the inhibition in vivo at 0.3 mg/kg in the assay on gastric acid secretion was determined as 81%.
The corresponding values for `O=C(Nc1cccc(-c2nnn[nH]2)c1)NC1C(=O)N(CC(=O)c2cccs2)c2ccccc2N(CC(=O)c2cccs2)C1=O` [Compound 20-iv, 1,5-Bis-(thienylcarbonylmethyl)-3-(N'-(m-tetrazolylphenyl)ureido)-1H-1,5-benzodiazepine-2,4(3H,5H)-dione] are 3 nM, 380 nM, 2 nM and 65%.
On to `O=C(Nc1cccc(SCc2nnn[nH]2)c1)NC1C(=O)N(CC(=O)C2CC2)c2ccccc2N(CC(=O)C2CC2)C1=O` [Compound 17-xvii], for which the figures for the half-inhibitory concentration (IC50) at CCK-B receptor, at CCK-A receptor and on gastrin receptor were 1 nM, 1300 nM and < 1 nM, respectively. In the assay with gastric acid secretion, the inhibition in vivo at 0.1 mg/kg was determined as 30%.
For `O=C(Nc1cccc(C(=O)O)c1)NC1C(=O)N(CC(=O)C2CC2)c2ccccc2N(CC(=O)C2CC2)C1=O` [Compound 17-ii], the IC50 was 105 nM at CCK-B receptor, > 10000 nM on CCK-A receptor and 5 nM at gastrin receptor. In the assay with gastric acid secretion, the inhibition in vivo at 0.3 mg/kg came out at 72%.

As usually defined, the IC50 is the concentration that gives 50% inhibition.
